Our source for the EC50 values is patent publication US9682976B2, “Protein kinase C inhibitors and uses thereof” (Rigel Pharmaceuticals, Inc., priority 2012, dated 2017).

This experiment concerns PKC mediated IL-2 production. As to the kind of experiment: IL-2 ELISA, human primary T cell, anti CD3+CD28+. Format: cell-based. To be noted: human primary T cells stimulated with αCD3 and αCD28, 24 hours. The procedure, abridged:
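Human peripheral blood T cells, pre-expanded with αCD3/αCD28 and IL-2 and then washed free of IL-2, were pre-incubated with compound for 1 h at 37° C. They were then stimulated on plates coated with […] αCD3 and 5 μg/ml αCD28, or with 0.5 ng/ml PMA plus 0.1 uM ionomycin in the counter assay. IL-2 in supernatants was measured by ELISA after 24 h.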

For orientation: EC50 means the concentration needed to bring the measured effect to its halfway point.

`CC1(C)C[C@H](Nc2nc(Nc3ccc(OCC(O)(C(F)(F)F)C(F)(F)F)c(C#N)c3)ncc2F)C[C@@H]2CCCN21` [Compound 209, 5-((4-(((7R,8aS)-5,5-dimethyloctahydroindolizin-7-yl)amino)-5-fluoropyrimidin-2-yl)amino)-2-(3,3,3-trifluoro-2-hydroxy-2-(trifluoromethyl)propoxy)benzonitrile] displayed an EC50 (Homo sapiens, T-cell, 24 h) of 100 to 500 nM.
On the same count and under the same terms, as for `[2H]C([2H])(O)C([2H])([2H])Oc1ccc(Nc2ncc(F)c(N[C@@H]3C[C@@H]4CCCN4C(C)(C)C3)n2)cc1C#N` [Compound 210, 5-((4-(((7R,8aS)-5,5-dimethyloctahydroindolizin-7-yl)amino)-5-fluoropyrimidin-2-yl)amino)-2-(2-hydroxyethoxy-1,1,2,2-d4)benzonitrile], the figure is under 100 nM.
With `CC1(C)C[C@H](N(CC(O)CO)c2nc(Nc3ccc(OCC(O)CO)c(C#N)c3)ncc2F)C[C@@H]2CCCN21` (stereo partly shown) [Compound 211], the EC50 (T-cell) fell in the range of 1000 to 10000 nM.
Regarding `CC1(C)C[C@H](Nc2nc(Nc3ccc(OCC(O)CO)c(C#N)c3)ncc2F)C[C@@H]2CCCN21` (stereo partly drawn) [Compound 212, 2-(2,3-dihydroxypropoxy)-5-((4-(((7R,8aS)-5,5-dimethyloctahydroindolizin-7-yl)amino)-5-fluoropyrimidin-2-yl)amino)benzonitrile], for the setting “Homo sapiens, T-cell, 24 h”, the EC50 was in the range of 1000 to 10000 nM.
Still for that read-out and setting: as for `CC1(C)C[C@H](Nc2nc(Nc3ccc(OCCCO)c(C#N)c3)ncc2F)C[C@@H]2CCCN21` [Compound 213, 5-((4-(((7R,8aS)-5,5-dimethyloctahydroindolizin-7-yl)amino)-5-fluoropyrimidin-2-yl)amino)-2-(3-hydroxypropoxy)benzonitrile], the figure is 100 to 500 nM; as for `CC1(C)C[C@H](Nc2nc(Nc3ccc(OCC(O)CO)c(-n4cnnn4)c3)ncc2F)C[C@@H]2CCCN21` (stereo partly drawn) [Compound 214, 3-(4-((4-(((7R,8aS)-5,5-dimethyloctahydroindolizin-7-yl)amino)-5-fluoropyrimidin-2-yl)amino)-2-(1H-tetrazol-1-yl)phenoxy)propane-1,2-diol], 100 to 500 nM.
`CC1(C)C[C@H](Nc2nc(Nc3ccc(OCCCO)c(-n4cnnn4)c3)ncc2F)C[C@@H]2CCCN21` [Compound 215, 3-(4-((4-(((7R,8aS)-5,5-dimethyloctahydroindolizin-7-yl)amino)-5-fluoropyrimidin-2-yl)amino)-2-(1H-tetrazol-1-yl)phenoxy)propan-1-ol] returned an EC50 (Homo sapiens, T-cell, 24 h) of under 100 nM.
For the setting “Homo sapiens, T-cell, 24 h”, `COc1cc(Nc2ncc(F)c(N[C@@H]3C[C@@H]4CCCN4C(C)(C)C3)n2)ccc1OCCO` [Compound 216, 2-(4-((4-(((7R,8aS)-5,5-dimethyloctahydroindolizin-7-yl)amino)-5-fluoropyrimidin-2-yl)amino)-2-methoxyphenoxy)ethan-1-ol] gave an EC50 of over 10000 nM.
Consider `[2H]C([2H])(O)C([2H])([2H])Oc1ccc(Nc2ncc(F)c(N[C@@H]3C[C@@H]4CCCN4C(C)(C)C3)n2)cc1OC` [Compound 217, 2-(4-((4-(((7R,8aS)-5,5-dimethyloctahydroindolizin-7-yl)amino)-5-fluoropyrimidin-2-yl)amino)-2-methoxyphenoxy)ethan-1,1,2,2-d4-1-ol], for which the EC50 (Homo sapiens, T-cell, 24 h) was over 10000 nM.
In the case of `[2H]C([2H])(O)C([2H])([2H])Oc1ccc(Nc2ncc(F)c(N[C@@H]3C[C@@H]4CCCN4C(C)(C)C3)n2)cc1C#N` [Compound 219, 5-((4-(((7R,8aS)-5,5-dimethyloctahydroindolizin-7-yl)amino)-5-fluoropyrimidin-2-yl)amino)-2-(2-hydroxyethoxy-1,1,2,2-d4)benzonitrile], the EC50 is 100 to 500 nM.
Compound `[2H]C([2H])(O)C([2H])([2H])Oc1cc(F)c(Nc2ncc(F)c(N[C@@H]3C[C@@H]4CCCN4C(C)(C)C3)n2)cc1-n1nnn(C)c1=O` [Compound 221, 1-(5-((4-(((7R,8aS)-5,5-dimethyloctahydroindolizin-7-yl)amino)-5-fluoropyrimidin-2-yl)amino)-4-fluoro-2-(2-hydroxyethoxy-1,1,2,2-d4)phenyl)-4-methyl-1,4-dihydro-5H-tetrazol-5-one] returned an EC50 (T-cell) of under 100 nM.
`C[C@H](CO)COc1cc(F)c(Nc2ncc(F)c(N[C@@H]3C[C@@H]4CCCN4C(C)(C)C3)n2)cc1-n1nnn(C)c1=O` [Compound 222, 1-(5-((4-(((7R,8aS)-5,5-dimethyloctahydroindolizin-7-yl)amino)-5-fluoropyrimidin-2-yl)amino)-4-fluoro-2-((R)-3-hydroxy-2-methylpropoxy)phenyl)-4-methyl-1,4-dihydro-5H-tetrazol-5-one] had an EC50 (Homo sapiens, T-cell, 24 h) of 100 to 500 nM.
Still for that read-out and setting: as for `CC1(C)C[C@H](Nc2nc(Nc3ccc(OCCO)c(-n4cnnn4)c3)ncc2Cl)C[C@@H]2CCCN21` [Compound 223, 2-(4-((5-chloro-4-(((7R,8aS)-5,5-dimethyloctahydroindolizin-7-yl)amino)pyrimidin-2-yl)amino)-2-(1H-tetrazol-1-yl)phenoxy)ethan-1-ol], the figure is under 100 nM; as for `Cn1nnn(-c2cc(Nc3ncc(F)c(N[C@@H]4C[C@@H]5CCCN5C(C)(C)C4)n3)c(F)cc2OC2CC(OCc3ccccc3)C2)c1=O` (stereo partly drawn) [Compound 225, 1-(2-(3-(benzyloxy)cyclobutoxy)-5-((4-(((7R,8aS)-5,5-dimethyloctahydroindolizin-7-yl)amino)-5-fluoropyrimidin-2-yl)amino)-4-fluorophenyl)-4-methyl-1,4-dihydro-5H-tetrazol-5-one], 100 to 500 nM.
Still for that read-out and setting: to `Cn1nnn(-c2cc(Nc3ncc(F)c(N[C@@H]4C[C@@H]5CCCN5C(C)(C)C4)n3)c(F)cc2OCCNC(=O)OC(C)(C)C)c1=O` [Compound 226, tert-butyl (2-(4-((4-(((7R,8aS)-5,5-dimethyloctahydroindolizin-7-yl)amino)-5-fluoropyrimidin-2-yl)amino)-5-fluoro-2-(4-methyl-5-oxo-4,5-dihydro-1H-tetrazol-1-yl)phenoxy)ethyl)carbamate] belongs 100 to 500 nM; to `Cn1nnn(-c2cc(Nc3ncc(F)c(N[C@@H]4C[C@@H]5CCCN5C(C)(C)C4)n3)c(F)cc2OC2CC(O)C2)c1=O` (stereo partly drawn) [Compound 227, 1-(5-((4-(((7R,8aS)-5,5-dimethyloctahydroindolizin-7-yl)amino)-5-fluoropyrimidin-2-yl)amino)-4-fluoro-2-(3-hydroxycyclobutoxy)phenyl)-4-methyl-1,4-dihydro-5H-tetrazol-5-one], 100 to 500 nM.
On to `Cn1nnn(-c2cc(Nc3ncc(F)c(N[C@@H]4C[C@@H]5CCCN5C(C)(C)C4)n3)c(F)cc2OCCN)c1=O` [Compound 228, 1-(2-(2-aminoethoxy)-5-((4-(((7R,8aS)-5,5-dimethyloctahydroindolizin-7-yl)amino)-5-fluoropyrimidin-2-yl)amino)-4-fluorophenyl)-4-methyl-1,4-dihydro-5H-tetrazol-5-one], for which the half-maximal effective concentration (EC50) is 100 to 500 nM.
Where the note is “Homo sapiens, T-cell, 24 h”, `CC(O)COc1ccc(Nc2ncc(Cl)c(N[C@@H]3C[C@@H]4CCCN4C(C)(C)C3)n2)cc1C#N` (stereo partly drawn) [Compound 229, 5-((5-chloro-4-(((7R,8aS)-5,5-dimethyloctahydroindolizin-7-yl)amino)pyrimidin-2-yl)amino)-2-(2-hydroxypropoxy)benzonitrile] displayed an EC50 of 1000 to 10000 nM.
On the same count and under the same terms, as for `Cn1nnn(-c2cc(Nc3ncc(F)c(N[C@@H]4C[C@@H]5CCCN5C(C)(C)C4)n3)c(F)cc2OCC(O)C(F)(F)F)c1=O` (stereo partly drawn) [Compound 230, 1-(5-((4-(((7R,8aS)-5,5-dimethyloctahydroindolizin-7-yl)amino)-5-fluoropyrimidin-2-yl)amino)-4-fluoro-2-(3,3,3-trifluoro-2-hydroxypropoxy)phenyl)-4-methyl-1,4-dihydro-5H-tetrazol-5-one], the figure is 100 to 500 nM.
